Data as given in patent US20080045559A1, “TOCOPHEROL-MODIFIED THERAPEUTIC DRUG COMPOUNDS” (SONUS PHARMACEUTICALS, INC., priority 2003, published 2008).

Assays:
Test in all cases: In vitro cytotoxicity GI50, Example 48
Type in all cases: cell-based
HCT-15 (COLON) = settings: Homo sapiens, Alamar Blue or Sulfarhodamine B
HCT-116 (COLON) = settings: Homo sapiens, HCT-116, HCT-116; Alamar Blue or Sulfarhodamine B
Description: The study was performed using either Alamar Blue or Sulfarhodamine B assays.

H460 (NSCLC) = settings: Homo sapiens, NCI-H460; H460; Alamar Blue or Sulfarhodamine B; read-out: GI50
SKOV-3 (OVARIAN) = settings: Homo sapiens, SK-OV-3, Alamar Blue or Sulfarhodamine B

CC[C@@]1(O)C(=O)OCc2c1cc1n(c2=O)Cc2cc3cc(OC(=O)CCC(=O)Oc4c(C)c(C)c5c(c4C)CC[C@@](C)(CCC[C@H](C)CCC[C@H](C)CCCC(C)C)O5)ccc3nc2-1 [VESA-10-HO-CPT, Butanedioic acid, (2R)-3,4-dihydro-2,5,7,8-tetramethyl-2-[(4R,8R)-4,8,12-trimethyltridecyl]-2H-1-benzopyran-6-yl (4S)-4-ethyl-3,4,12,14-tetrahydro-4-hydroxy-3,14-dioxo-1H-pyrano[3′,4′:6,7]indolizino[1,2-b]quinolin-9-yl ester]
GI50 (HCT-15 (COLON)): 1290 nM
GI50 (HCT-116 (COLON)): 186 nM
GI50 (H460 (NSCLC)): 155 nM
GI50 (SKOV-3 (OVARIAN)): 97.7 nM
